Experimental data from ChEMBL document CHEMBL1133141, “Synthesis and biological activities of hapalosin derivatives with modification at the C12 position” (2000).

What was measured:
[1] = system: A2780; assay: MDR-reversing activity was measured by vincristine accumulation in the multidrug resistant 2780AD, a subline of A2780 ovarian carcinoma cells at 10 µg/mL
[2] = system: HT-1080; assay: Compound was tested for the induction of apoptosis in human fibrosarcoma HT1080 cell line; No induction of apoptosis up to 10 ug/mL; assay type: functional, cell-based

SMILES | Vincristine accumulation (% of control) [1] | Concentration [2]
CCCCCCC[C@H]1OC(=O)C[C@@H](O)[C@H](Cc2ccccc2)N(C)C(=O)[C@H](CC(C)C)OC(=O)[C@H]1C | 288% | No induction
CCCCCCC[C@H]1OC(=O)C[C@@H](O)[C@H](Cc2ccccc2)N(C)C(=O)[C@H](C(C)C)OC(=O)[C@H]1C [HAPALOSIN] | 267% | No induction
CCCCCCC[C@H]1OC(=O)C[C@@H](O)[C@H](Cc2ccccc2)N(C)C(=O)[C@H](C(C)CC)OC(=O)[C@H]1C (stereo partly drawn) | 308% | No induction
CCCCCCC[C@H]1OC(=O)C[C@@H](O)[C@H](Cc2ccccc2)N(C)C(=O)[C@H](Cc2ccccc2)OC(=O)[C@H]1C | 254% | No induction
CCCCCCC[C@H]1OC(=O)C[C@@H](O)[C@H](Cc2ccccc2)N(C)C(=O)[C@H](CCSC)OC(=O)[C@H]1C | 269% | No induction
COc1ccc(CCN(C)CCCC(C#N)(c2ccc(OC)c(OC)c2)C(C)C)cc1OC (stereo not drawn) [VERAPAMIL] | 350% | 
CCCCCCC[C@H]1OC(=O)C[C@@H](O)[C@H](Cc2ccccc2)N(C)C(=O)[C@H](C)OC(=O)[C@H]1C | 441% | No induction
